Reference: ChEMBL document CHEMBL1141344, “Variation in cytostatic constituents of a sponge-derived Gymnascella dankaliensis by manipulating the carbon source” (2007)
Converted amounts (≈) assume the structure as drawn. Values belong to the compound of their own block, whether it stands above or below them.

How the values were obtained:
Format in all cases: functional
P388 = assay: Growth inhibition of mouse P388 cells; conditions: read-out: ED50 (the source's name)
NCI-H522 = assay: Cytotoxicity against human NCI-H522 cells
SNB-78 = assay: Cytotoxicity against human SNB78 cells
MCF7 = assay: Cytotoxicity against human MCF7 cells
HCT-116 = assay: Cytotoxicity against human HCT116 cells
KM12 = assay: Cytotoxicity against human KM12 cells
SF-295 = assay: Cytotoxicity against human SF295 cells
MKN-7 = assay: Cytotoxicity against human MKN7 cells
St-4 = assay: Cytotoxicity against human St4 cells
MKN-28 = assay: Cytotoxicity against human MKN28 cells
OVCAR-3 = assay: Cytotoxicity against human OVCAR-3 cells
A549 = assay: Cytotoxicity against human A549 cells
ACHN = assay: Cytotoxicity against human ACHN cells
[1] = Cytotoxicity against human HBC5 cells
LOX IMVI = assay: Cytotoxicity against human LOX IMVI cells
HCC 2998 = assay: Cytotoxicity against human HCC2998 cells
PC-3 = assay: Cytotoxicity against human PC3 cells
DMS-114 = assay: Cytotoxicity against human DMS114 cells
DMS-273 = assay: Cytotoxicity against human DMS273 cells
U-251 = assay: Cytotoxicity against human U251 cells
[2] = Cytotoxicity against human MKN1 cells; conditions: MKN-1
SNB-75 = assay: Cytotoxicity against human SNB75 cells
MDA-MB-231 = assay: Cytotoxicity against human MDA-MB-231 cells
MKN-45 = assay: Cytotoxicity against human MKN45 cells
HT-29 = assay: Cytotoxicity against human HT29 cells
[3] = Cytotoxicity against human RXF631L cells; conditions: RXF 631
OVCAR-5 = assay: Cytotoxicity against human OVCAR5 cells
SF-268 = assay: Cytotoxicity against human SF268 cells
[4] = Cytotoxicity against human BSY1 cells; conditions: BSY-1
MKN-74 = assay: Cytotoxicity against human MKN74 cells
DU-145 = assay: Cytotoxicity against human DU145 cells
[5] = Cytotoxicity against human HBC4 cells
HCT-15 = assay: Cytotoxicity against human HCT15 cells
OVCAR-4 = assay: Cytotoxicity against human OVCAR4 cells
SK-OV-3 = assay: Cytotoxicity against human SKOV3 cells
NCI-H226 = assay: Cytotoxicity against human NCI-H226 cells
SF-539 = assay: Cytotoxicity against human SF539 cells
OVCAR-8 = assay: Cytotoxicity against human OVCAR8 cells
NCI-H23 = assay: Cytotoxicity against human NCI-H23 cells
NCI-H460 = assay: Cytotoxicity against human NCI-H460 cells

EC50 (P388): 2.8 µg/mL (≈ 6.56 µM)
SMILES: CC(C)[C@@H](C)/C=C/[C@@H](C)[C@H]1CCC(=O)[C@]23CC(=O)[C@@H]4CC(=O)CC[C@]4(C)[C@H]2CC[C@]13C [DANKASTERONE B]

EC50 (P388): 1.6 µg/mL (≈ 3.77 µM)
SMILES: CC(C)[C@@H](C)/C=C/[C@@H](C)[C@H]1C[C@H]2O[C@]23C2=CC(=O)[C@@H]4CC(=O)CC[C@]4(C)[C@H]2CC[C@]13C [GYMNASTERONE B]
GI50 (NCI-H522): 26.9 µM
GI50 (SNB-78): > 100 µM
GI50 (MCF7): 33.9 µM
GI50 (HCT-116): 95.5 µM
GI50 (KM12): 67.6 µM
GI50 (SF-295): 36.3 µM
GI50 (MKN-7): 47.9 µM
GI50 (St-4): > 100 µM
GI50 (MKN-28): 60.3 µM
GI50 (OVCAR-3): 66.1 µM
GI50 (A549): > 100 µM
GI50 (ACHN): > 100 µM
GI50 [1]: 26.9 µM
GI50 (LOX IMVI): 87.1 µM
GI50 (HCC 2998): 51.3 µM
GI50 (PC-3): 89.1 µM
GI50 (DMS-114): 12.9 µM
GI50 (DMS-273): 41.7 µM
GI50 (U-251): > 100 µM
GI50 [2]: 45.7 µM
GI50 (SNB-75): 56.2 µM
GI50 (MDA-MB-231): 33.1 µM
GI50 (MKN-45): 72.4 µM
GI50 (HT-29): 30.2 µM
GI50 [3]: > 100 µM
GI50 (OVCAR-5): 44.7 µM
GI50 (SF-268): > 100 µM
GI50 [4]: 15.1 µM
GI50 (MKN-74): 83.2 µM
GI50 (DU-145): 28.8 µM
GI50 [5]: > 100 µM
GI50 (HCT-15): 69.2 µM
GI50 (OVCAR-4): 49 µM
GI50 (SK-OV-3): > 100 µM
GI50 (NCI-H226): 41.7 µM
GI50 (SF-539): > 100 µM
GI50 (OVCAR-8): 67.6 µM
GI50 (NCI-H23): 70.8 µM
GI50 (NCI-H460): > 100 µM

Further lines, the compound ahead of its results:

SMILES: CC(C)[C@@H](C)/C=C/[C@@H](C)[C@H]1CC(=O)C2=C3C=CC4=CC(=O)CC[C@]4(C)[C@H]3CC[C@@]21C [GYMNASTERONE D]
EC50 (P388): 2.5 µg/mL (≈ 6.15 µM)

SMILES: CC(C)[C@@H](C)/C=C/[C@@H](C)[C@H]1CCC(=O)[C@]23CC(=O)C4=CC(=O)CC[C@]4(C)[C@H]2CC[C@]13C [DANKASTERONE A]
GI50 (NCI-H522): 2.51 µM
GI50 (SNB-78): 3.02 µM
GI50 (MCF7): 3.72 µM
GI50 (HCT-116): 2.29 µM
GI50 (KM12): 3.72 µM
GI50 (SF-295): 3.72 µM
GI50 (MKN-7): 4.57 µM
GI50 (St-4): 12.9 µM
GI50 (MKN-28): 3.98 µM
GI50 (OVCAR-3): 2 µM
GI50 (A549): 14.1 µM
GI50 (ACHN): 2.4 µM
GI50 [1]: 3.31 µM
GI50 (LOX IMVI): 2.19 µM
GI50 (HCC 2998): 1.91 µM
GI50 (PC-3): 5.62 µM
GI50 (DMS-114): 1.7 µM
GI50 (DMS-273): 1.7 µM
GI50 (U-251): 3.72 µM
GI50 [2]: 1.82 µM
GI50 (SNB-75): 4.27 µM
EC50 (P388): 2.2 µg/mL (≈ 5.18 µM)
GI50 (MDA-MB-231): 5.89 µM
GI50 (MKN-45): 11 µM
GI50 (HT-29): 8.13 µM
GI50 [3]: 15.8 µM
GI50 (OVCAR-5): 2.29 µM
GI50 (SF-268): 2.82 µM
GI50 [4]: 2.19 µM
GI50 (MKN-74): 4.37 µM
GI50 (DU-145): 4.07 µM
GI50 [5]: 4.37 µM
GI50 (HCT-15): 2.51 µM
GI50 (OVCAR-4): 2.4 µM
GI50 (SK-OV-3): 15.8 µM
GI50 (NCI-H226): 3.8 µM
GI50 (SF-539): 2.09 µM
GI50 (OVCAR-8): 3.63 µM
GI50 (NCI-H23): 3.8 µM
GI50 (NCI-H460): 11 µM

SMILES: CC(C)[C@@H](C)/C=C/[C@@H](C)[C@H]1CC(=O)C2=C3C=CC4=C[C@@H](O)CC[C@]4(C)[C@H]3CC[C@@]21C [GYMNASTERONE C]
EC50 (P388): 0.9 µg/mL (≈ 2.2 µM)

SMILES: CCCCCC[C@H](C)/C=C(C)/C=C/C(=O)N[C@]1(C=O)C[C@H]2C[C@H]([C@H](C)/C=C/[C@H](C)C(C)C)[C@@]3(C)CC[C@H]4C(=C1C(=O)C1=C[C@@H](O)CC[C@@]14C)[C@@]23O [GYMNASTERONE A]
GI50 (NCI-H522): 28.2 µM
GI50 (SNB-78): 12.9 µM
GI50 (MCF7): 58.9 µM
GI50 (HCT-116): > 100 µM
GI50 (KM12): > 100 µM
GI50 (SF-295): 87.1 µM
GI50 (MKN-7): 53.7 µM
GI50 (St-4): > 100 µM
GI50 (MKN-28): > 38 µM
GI50 (OVCAR-3): 39.8 µM
GI50 (A549): > 100 µM
GI50 (ACHN): > 100 µM
GI50 [1]: > 91.2 µM
GI50 (LOX IMVI): > 100 µM
GI50 (HCC 2998): > 100 µM
GI50 (PC-3): > 100 µM
GI50 (DMS-114): 72.4 µM
GI50 (DMS-273): > 100 µM
GI50 (U-251): > 100 µM
GI50 [2]: > 75.9 µM
GI50 (SNB-75): > 100 µM
GI50 (MDA-MB-231): > 100 µM
GI50 (MKN-45): > 100 µM
GI50 (HT-29): > 100 µM
GI50 [3]: 12.9 µM
GI50 (OVCAR-5): > 100 µM
GI50 (SF-268): 21.9 µM
GI50 [4]: > 100 µM
GI50 (MKN-74): 28.2 µM
GI50 (DU-145): > 100 µM
GI50 [5]: > 100 µM
GI50 (HCT-15): > 100 µM
GI50 (OVCAR-4): 67.6 µM
GI50 (SK-OV-3): > 100 µM
GI50 (NCI-H226): 28.2 µM
GI50 (SF-539): 50.1 µM
GI50 (OVCAR-8): > 100 µM
GI50 (NCI-H23): > 100 µM
GI50 (NCI-H460): > 100 µM
